The AUC(0-t) is exposure summed from dosing to a finite time, without extrapolation to infinity. Low readings indicate less exposure, high ones more exposure.

Where a SMILES comes first, the peptide text is derived from it. Bridges are numbered along the chain shown (N, C = ends).

The nature of this data set: In vivo pharmacokinetic study, plasma LC-MS/MS. To be noted: mouse, iv, 1 nmol/g body weight, male ICR mice, mean ± SD. The source says:
These animal experiments were approved by the Animal Care and Use Committee of Osaka University (approval No. Douyaku 30-3-2) and conducted at Osaka University in accordance with the aforementioned guidelines. LC–MS/MS data were obtained using an LCMS-8060NX MS system (Shimadzu Corp., Kyoto, Japan) connected to a Nexera X3 UHPLC system (Shimadzu) equipped with a Peptide BEH C18 column (1.7 μm, 2.1 × 50 mm, Waters Corp., Milford, MA, USA). Mobile phase A was 0.1% formic acid in water, and mobile phase B was acetonitrile. The elution profile of mobile phase B was 5% isocratic between 0 to 1 min, linear gradient from 5% to 50% between 1 to 1.5 min, and increase from 50% to 75% between 1.5 to 3 min. The flow rate was 0.2 mL/min. For pharmacokinetic studies, free or nanoformulated KS-133 was administered intravenously or subcutaneously to male ICR mice at 1 nmol/g body weight. Serial blood samples were collected from the tail vein using heparinized capillary tubes at the indicated times after administration. The plasma (5 μL) obtained from each blood sample was mixed with 10 μL of 0.1% formic acid in 50% (v/v) acetonitrile/water, and subsequently, 50 μL of acetonitrile was added. After centrifugation, aliquots (50 μL) of the supernatant were mixed with equal volumes of 0.2% formic acid in water and then injected into the LC–MS/MS system. Pharmacokinetic parameters were obtained from the plasma concentration–time data by non-compartmental analysis using Phoenix WinNonlin Software (Certara Companies, NJ, USA).
Fig 4 Pharmacokinetic study of KS-133 and KS-133 NPs in mice. Concentration of peptides in plasma at indicated time points after administration of peptide with or without nanoformulation are presented. (A) Intravenous administration of KS-133 (n = 3, 1 nmol/g, mean ± SD). (B) Subcutaneous administration of KS-133 and KS-133 NPs (n = 5, 1 nmol/g, mean ± SD). (C) Blood samples were collected at the indicated times. The concentration of KS-133 in plasma was determined by LC–MS/MS (mean ± SD, *p < 0.05 by Student’s t-test). The pharmacokinetic parameters Cmax (μM), tmax (h), t1/2 (h), AUC0-t (μmol·h/L), AUC0-inf,pred (μmol·h/L), and MRTinf,pred (h) were calculated as described in the “Materials and methods” section. […]

In the case of `CC[C@H](C)[C@H](NC(=O)[C@H](CC(C)C)NC(=O)[C@@H]1CC(=O)NCCCC[C@@H]2NC(=O)[C@@H]3CCCN3C(=O)[C@H](CC(C)C)NC(=O)[C@H](Cc3ccc(O)cc3)NC(=O)[C@@H]3CCCN3C(=O)[C@@H]3CCCN3C(=O)[C@@H](NC(C)=O)CSSC[C@H](NC(=O)[C@H](CC(C)C)NC(=O)[C@H](Cc3ccc(O)cc3)NC2=O)C(=O)N1)C(N)=O` [KS-133] (Ac-CPPYLPKYLCDLI-NH2; disulfide 1-10; lactam 7-11), the AUC(0-inf) (i.v., n = 3, read-out: AUC0-inf, pred) worked out at 10.1 ± 1.73 µM·h. Also, the MRT (i.v., n = 3, read-out: MRTinf, pred) amounted to 58.8 ± 6.6 min. The half-life (i.v., non-compartmental, n = 3, read-out: t1/2 (elimination half-life from plasma) (converted)) was 40.8 min. Besides, the AUC(0-t) (n = 3) was 7.51 ± 1.77 µM·h.

The record behind these values is paper PMC10321640, “The VIPR2-selective antagonist KS-133 changes macrophage polarization and exerts potent anti-tumor effects as a single agent and in combination with an anti-PD-1 antibody” (PLOS ONE, 2023).
